Assay results: ChEMBL document CHEMBL1133343, “Synthesis and antifungal activity of a ferrocene-fluconazole analogue” (2000)

Assays:
Format in all cases: functional
Candida parapsilosis = assay: Compound was tested for antifungal activity against growth of two strains Candida parapsilosis; settings: Lodderomyces parapsilosis
Candida albicans [1] = assay: Compound was tested for antifungal activity against growth of three strains of Candida albicans
Pichia kudriavzevii = assay: Compound was tested for antifungal activity against growth of three strains Candida krusei
Candida albicans [2] = assay: Compound was tested for antifungal activity against growth of two strains Candida glabrata

OC(Cn1cncn1)(Cn1cncn1)c1ccc(F)cc1F [FLUCONAZOLE]
MIC80 (Candida parapsilosis): < 12 µg/mL | MIC80 (Candida albicans [1]): < 1.5 µg/mL | MIC80 (Pichia kudriavzevii): > 48 µg/mL | MIC80 (Candida albicans [2]): > 48 µg/mL
